According to patent publication US6600028B1, “Tricyclic base analogues” (Amersham Pharmacia Biotech UK Limited, priority 1997, dated 2003):
Where two headings read alike, the source gives them in different places.

What was measured:
[1] = system: ThermoSequenase DNA polymerase; assay: Cycle sequencing reactions with radiolabelled terminators; type: biochemical; settings: for length of sequence obtained: dSTP 40 μM in place of dATP ("A" mix), dITP 37.5 μM or 8-oxo-dGTP 160 μM in place of dGTP
Experimental: The incorporation of dSTP and the pyrazolo compound (4.11) into DNA by ThermoSequenase™ DNA polymerase was examined in cycle sequencing reactions.
The following nucleotide mixes were made up:
a) Standard dNTP mix 7.5 μM dATP, dCTP, dGTP, dTTP
b) Standard dITP mix 7.5 μM dATP, dCTP, dTTP and 37.5 μM dITP
c) 8-oxo-dGTP mix 7.5 μM dATP, dCTP, dTTP and 160 μM 8-oxo-dGTP
d) dSTP “A” mix 7.5 μM dCTP, dGTP, dTTP and 40 μM dSTP
e) Compound (4.11) “A” mix 7.5 μM dCTP, dGTP, dTTP and 40 μM compound (4.11)
f) dSTP “G” mix 7.5 μM dATP, dCTP, dTTP and 80 μM dSTP
g) Compound (4.11) “G” mix 7.5 μM dATP, dCTP, dTTP and 80 μM compound (4.11)
The following reaction master mix was made up:
All reagents were from ThermoSequenase radiolabelled terminator cycle sequencing kit (US79750 Amersham life Science). [α^33P] ddNTP's were from Amersham Pharmacia Biotech (code AH9539).
All reactions were overlayed with mineral oil and then cycled as follows:
The reactions were then heated at 95° C. for 2 minutes before loading onto a 6% polyacrylamide 7M urea gel. The gel was run at 48 mA for 90 minutes. After fixing in 10% acetic acid/10% methanol the gel was dried and exposed to Kodak Biomax autoradiography film.

[2] = molecular target: T1, Klenow fragment of E. coli DNA polymerase I (Escherichia coli, UniProt P00582); assay: Primer extension assay, incorporation of dSTP into DNA by Klenow fragment; type: biochemical; settings: 50 μM dSTP, 37° C., 15 minutes, opposite T or C in template, not opposite A or G
T1 construct: the Klenow fragment of E. coli DNA polymerase I (Boehringer Mannheim); purchased Boehringer Mannheim
Experimental: (§1) a) The incorporation of dSTP into DNA by DNA polymerases was examined in primer extension assays. […] Each reaction contained 1 pmol of a 24-mer oligonucleotide: 5′ […] (SEQ ID NO. 1) annealed to 0.25 pmol of a complementary 20-mer oligonucleotide 5′ […] (SEQ ID NO. 2) which was labelled at the 5′ end with 32P, and 1 μl of 10×buffer (for Taq polymerase: 500 mM KCl, 100 mM Tris pH 9 at room temperature, 1% Triton-X 100, 15 mM MgCl2; for the other two enzymes: 50 mM MgCl2, 100 mM Tris pH 7.5 at room temperature, 75 mM DTT). Normal dNTPs, in various combinations, were added, as required, to 50 μM final concentration; dSTP was also used at 50 μM final concentration.
(§2) For each enzyme four reactions were performed:
(§3) iv) plus dSTP, TTP and dCTP.
(§4) A single unit of the appropriate polymerase was added to start each of the reactions; these were incubated for 15 minutes (at 72° C. under mineral oil for Taq, at 37° C. for Pol I derivatives) before being terminated by the addition of 5 μl of termination mix (95% formamide, 20 mM EDTA, 0.05% Bromophenol Blue, 0.05% Xylene Cyanol FF). The reactions were heated to 70° C. for ten minutes before electrophoresis on a 20% polyacrylamide/7M urea gel, which was then exposed to autoradiography film.

Taq polymerase = molecular target: T2, Taq polymerase (Thermus aquaticus, UniProt P19821); assay: Primer extension assay, incorporation of dSTP into DNA by Taq polymerase; type: biochemical; settings: 50 μM dSTP, 72° C., 15 minutes, opposite T or C in template, not opposite A or G
T2 construct: purchased Promega
Experimental: as §1, §2, §3, §4

[3] = system: 3′ to 5′ exonuclease-free version of Klenow fragment of DNA polymerase I (EFK); settings: for primer extension product, analogue triphosphate as only nucleotide: Template 1, 20 μM or 80 μM analogue triphosphate alone, 37° C., 3 minutes
Experimental: b) A second primer extension assay was used to compare the triphosphate of the pyrrolo compound (1.14) (dSTP) with the triphosphate of the pyrazolo compound (4.11) as substrates for the 3′ to 5′ exonuclease-free version of Klenow fragment of DNA polymerase I (EFK). The assay used a ^33P 5′ end labelled 15 mer primer hybridised to one of two different 24 mer templates.
One picomole ^33P labelled primer was hybridised to 2 picomoles of template in ×2 Klenow buffer. To this was added either 4 μM dNTPαS, 20 μM or 80 μM analogue triphosphate or a mixture of 4 μM dNTPαS and 20 or 80 μM analogue triphosphate. Two units EFK and 2 mU inorganic pyrophosphatase were used per reaction. Primer alone, primer plus template, primer plus template plus enzyme controls were also carried out. The reactions were incubated at 37° C. for 3 minutes. Reactions were then stopped by the addition of formamide EDTA stop solution. Reaction products were separated on a 19% polyacrylamide 7M urea gel and the product fragments sized by comparison with a ^33P labelled 8 to 32 base oligonucleotide ladder after exposure to Kodak Biomax autoradiography film.

[4] = system: terminal deoxynucleotidyl transferase; assay: Oligonucleotide tailing reaction; type: biochemical; settings: 64 μM dNTP or analogue triphosphate, 25 U enzyme, 90 minutes at 37° C.
Experimental: A 15 mer primer (sequence: 5′ TGC ATG TGC TGG AGA 3′) (SEQ ID NO. 6) and 8 to 32 base oligonucleotide markers were 5′ end labelled with [y^33P] ATP and T4 polynucleotide kinase. Reactions were boiled for 5 minutes after labelling to remove any PNK activity. Four picomoles of the labelled primer, 25 U terminal deoxynucleotidyl transferase and 64 μM dNTP or analogue triphosphate were incubated in 25 μl 100 mM cacodylate buffer pH7.2, 2 mM CoCl2 and 0.2 mM 2-mercaptoethanol for 90 minutes at 37° C. […] Autoradiography using Biomax film was carried out on the dry gel.

[5] = molecular target: 3′ to 5′ exonuclease-free version of Klenow fragment (Escherichia coli, UniProt P00582, D355A/E357A); settings: 50 μM dSTP, 37° C., 15 minutes, opposite T or C in template, not opposite A or G
Experimental: as §1, §2, §3, §4

T2 sequence (P19821 whole entry): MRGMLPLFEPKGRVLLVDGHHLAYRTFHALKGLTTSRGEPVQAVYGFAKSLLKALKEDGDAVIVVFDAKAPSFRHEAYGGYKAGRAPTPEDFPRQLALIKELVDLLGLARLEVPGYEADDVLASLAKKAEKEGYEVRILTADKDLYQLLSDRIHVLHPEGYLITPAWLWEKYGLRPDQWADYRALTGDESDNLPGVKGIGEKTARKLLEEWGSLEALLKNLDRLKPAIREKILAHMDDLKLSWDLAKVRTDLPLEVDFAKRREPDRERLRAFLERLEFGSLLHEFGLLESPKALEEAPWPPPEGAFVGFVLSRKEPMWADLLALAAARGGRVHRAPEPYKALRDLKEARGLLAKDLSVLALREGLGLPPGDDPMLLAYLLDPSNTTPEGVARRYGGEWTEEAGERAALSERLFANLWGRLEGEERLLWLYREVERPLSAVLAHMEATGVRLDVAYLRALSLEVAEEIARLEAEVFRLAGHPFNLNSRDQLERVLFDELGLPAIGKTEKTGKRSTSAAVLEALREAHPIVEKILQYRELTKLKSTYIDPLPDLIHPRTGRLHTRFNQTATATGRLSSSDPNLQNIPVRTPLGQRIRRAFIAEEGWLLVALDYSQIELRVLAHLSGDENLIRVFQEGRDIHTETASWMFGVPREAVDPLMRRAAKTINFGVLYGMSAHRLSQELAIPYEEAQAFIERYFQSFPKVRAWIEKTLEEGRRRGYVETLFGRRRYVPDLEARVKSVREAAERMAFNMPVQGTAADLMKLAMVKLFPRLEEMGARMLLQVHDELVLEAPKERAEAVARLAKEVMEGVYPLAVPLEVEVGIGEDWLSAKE
T1 sequence (P00582 324-928): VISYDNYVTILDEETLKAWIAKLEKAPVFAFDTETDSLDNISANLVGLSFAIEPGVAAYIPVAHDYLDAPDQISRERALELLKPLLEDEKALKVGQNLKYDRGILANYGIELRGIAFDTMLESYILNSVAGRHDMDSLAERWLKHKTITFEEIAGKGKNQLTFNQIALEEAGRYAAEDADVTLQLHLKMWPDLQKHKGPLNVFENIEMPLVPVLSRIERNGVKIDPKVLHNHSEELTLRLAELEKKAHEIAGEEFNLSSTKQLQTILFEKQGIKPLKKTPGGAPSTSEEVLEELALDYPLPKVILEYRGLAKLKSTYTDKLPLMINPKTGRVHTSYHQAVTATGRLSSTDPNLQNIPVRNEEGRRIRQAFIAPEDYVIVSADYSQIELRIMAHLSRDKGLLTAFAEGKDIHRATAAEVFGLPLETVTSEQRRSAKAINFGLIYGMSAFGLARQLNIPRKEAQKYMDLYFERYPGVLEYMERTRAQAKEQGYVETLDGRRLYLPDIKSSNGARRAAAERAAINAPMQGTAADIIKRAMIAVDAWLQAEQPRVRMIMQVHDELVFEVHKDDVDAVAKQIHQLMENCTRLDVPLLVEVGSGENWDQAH
Sequence of 3′ to 5′ exonuclease-free version of Klenow fragment (P00582 324-928 D355A/E357A): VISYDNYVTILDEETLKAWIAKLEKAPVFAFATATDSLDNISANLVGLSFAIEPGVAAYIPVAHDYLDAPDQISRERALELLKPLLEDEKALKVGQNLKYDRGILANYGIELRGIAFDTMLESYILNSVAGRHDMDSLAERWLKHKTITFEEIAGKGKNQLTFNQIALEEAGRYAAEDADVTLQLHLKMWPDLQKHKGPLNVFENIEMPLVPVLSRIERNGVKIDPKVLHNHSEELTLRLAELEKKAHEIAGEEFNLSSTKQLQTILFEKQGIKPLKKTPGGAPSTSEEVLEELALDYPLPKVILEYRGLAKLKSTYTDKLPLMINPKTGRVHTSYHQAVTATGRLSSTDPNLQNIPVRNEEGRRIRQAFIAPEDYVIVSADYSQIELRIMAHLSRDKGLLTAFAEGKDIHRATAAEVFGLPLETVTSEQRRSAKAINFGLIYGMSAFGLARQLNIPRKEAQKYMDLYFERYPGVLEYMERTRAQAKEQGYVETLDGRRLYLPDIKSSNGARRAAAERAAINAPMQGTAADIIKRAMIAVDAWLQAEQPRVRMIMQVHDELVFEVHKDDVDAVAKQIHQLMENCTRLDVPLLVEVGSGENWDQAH

“9-(2′-Deoxy-5′-O-triphosphate-ribofuranosyl)-pyrrolo[4,3,2-de]pyrimido[4,5-c]dihydro-oxazepine [dSTP]” was tested, and the “length of sequence obtained” value ([1]; M13 mp18 template, 10 cycles) was over 250 bases, the “quality as polymerase substrate” value ([1]; conclusion from cycle sequencing, compared with dITP) was “very good polymerase substrate” and the “incorporation of dSTP into DNA” value [2] was “can incorporate dSTP as either dGTP or as dATP”. The “incorporation of dSTP into DNA” value (Taq polymerase) was “can incorporate dSTP as either dGTP or as dATP”, the “native base in whose place the analogue is incorporated” value ([3]; Template 1) was “efficiently incorporated in place of both G and A” and the “primer extension product, analogue triphosphate as only nucleotide” value [3] was “+3 product”. The “native base in whose place the analogue is incorporated” value ([3]; Template 2) was “efficiently incorporated as a single G but that multiple additions as G are slow”, the “primer extension products with mixture of dTTPαS and analogue triphosphate” value ([3]; Template 2, no +1 product) was “+2, +3 and +5 products” and the “length of tail added to 15 mer primer” value [4] was “intermediate in size between those of dATP and dGTP”. For the same compound, the “incorporation of dSTP into DNA” value [5] was “can incorporate dSTP as either dGTP or as dATP”.
In the case of `Nc1nc2c(ncn2[C@H]2C[C@H](O)[C@@H](COP(=O)(O)OP(=O)(O)OP(=O)(O)O)O2)c(=O)[nH]1` [dGTP, reference compound], the “length of tail added to 15 mer primer” value [4] is reported as about 50 bases.
In the case of `Nc1ncnc2c1ncn2[C@H]1C[C@H](O)[C@@H](COP(=O)(O)OP(=O)(O)OP(=O)(O)O)O1` [dATP, reference compound], the “length of tail added to 15 mer primer” value [4] is reported as “greater than 100 bases”.
For `O=c1[nH]cnc2c1ncn2[C@H]1C[C@H](O)[C@@H](COP(=O)(O)OP(=O)(O)OP(=O)(O)O)O1` [dITP], the “band intensities of sequence” value ([1]; M13 mp18 template, 10 cycles, autoradiography) was “uneven band intensities especially in the G track” and the “length of sequence obtained” value ([1]; M13 mp18 template, 10 cycles) was under 200 bases.
In the case of “1-(2′-deoxy-5′-O-triphosphate-ribofuranosyl)-pyrazolo[3,4-d]pyrimidine[2,3-c]dihydro-oxazepine [Compound 4.11]”, the “length of tail added to 15 mer primer” value [4] is reported as “predominantly by a single base”.
For `Nc1nc2c([nH]c(=O)n2[C@H]2C[C@H](O)[C@@H](COP(=O)(O)OP(=O)(O)OP(=O)(O)O)O2)c(=O)[nH]1` [8-oxo dGTP, 8-oxo-dGTP], the “length of sequence obtained” value ([1]; M13 mp18 template, 10 cycles) was 15-20 bases.
In the case of `O=P(O)(O)OP(=O)(O)OP(=O)(O)OCC1OC(n2nc3c4c(ncnc42)NOCC3)CC1O` (stereo not shown) [Compound 4.11, 1-(2′-deoxy-5′-O-triphosphate-ribofuranosyl)-pyrazolo[3,4-d]pyrimidine[2,3-c]dihydro-oxazepine], the “further extension after incorporation of two analogue residues” value ([3]; Template 1) is reported as “did not occur”, the “native base in whose place the analogue is incorporated” value ([3]; Template 1) is reported as “behaving as A” and the “primer extension product, analogue triphosphate as only nucleotide” value [3] is reported as “did not extend”. The “primer extension product in the presence of dGTP” value ([3]; Template 1, analogue triphosphate plus dGTP) was “+3 product”, the “effect of incorporation of two analogue residues” value ([3]; Template 2) was “resulted in termination” and the “native base in whose place the analogue is incorporated” value ([3]; Template 2) was “behaved as A rather than G”.
